{"source": "patent US20150290251A1", "about": "“USE OF EGGSHELL MEMBRANE FORMULATIONS TO ALLEVIATE JOINT PAIN” (U.S. NUTRACEUTICALS, LLC d/b/a Valensa International, priority 2009, published 2015)", "origin": "cited, not measured here", "key": {"[1]": {"settings": "human trials; 4 mgs/day; compared to untreated subjects"}, "lens epithelial cells": {"tested_on": "lens epithelial cells", "settings": "in vitro lens epithelial cells; umol/L concentrations"}, "NO, PGE-2 and TNF-Alpha": {"tested_on": "NO, PGE-2 and TNF-Alpha", "settings": "induced uveitis; suppression of NO, PGE-2 and TNF-Alpha by directly blocking NO synthase activity"}, "[2]": {"tested_on": "cellular membrane lipid peroxidation"}, "[3]": {"settings": "compared with alpha-tocopherol"}, "C-Reactive Protein (CRP)": {"tested_on": "C-Reactive Protein (CRP)", "settings": "human subjects with high risk levels of CRP; three months of treatment"}}}
{"smiles": "CC1=C(/C=C/C(C)=C/C=C/C(C)=C/C=C/C=C(C)/C=C/C=C(C)/C=C/C2=C(C)C(=O)C(O)CC2(C)C)C(C)(C)CC(O)C1=O", "note": "(stereo not drawn) [Astaxanthin, 3,3′-dihydroxy-β, β-carotene-4, 4′dione]", "values": [{"measurement": "prevention of joint pain following strenuous knee exercise", "setting": "[1]", "value": "completely prevented"}, {"measurement": "suppression of UVB induced lipid peroxidative mediated cell damage", "setting": "lens epithelial cells", "value": "dramatically suppresses"}, {"measurement": "ocular anti-inflammatory activity", "setting": "NO, PGE-2 and TNF-Alpha", "value": "dose dependent ocular anti-inflammatory activity"}, {"measurement": "effect on pro-oxidant activity of Vioxx", "setting": "[2]", "value": "completely negates"}, {"measurement": "ability to quench singlet oxygen relative to alpha-tocopherol", "setting": "[3]", "value": "over five hundred times"}, {"measurement": "patients whose serum CRP levels dropped below the risk level", "setting": "C-Reactive Protein (CRP)", "value": "43 % of patients"}]}
